Measurements taken from patent USRE37781E1, “Substituted cyclic carbonyls and derivatives thereof useful as retroviral protease inhibitors” (DuPont Pharmaceuticals Company, priority 1991, dated 2002).
Values after ≈ are worked out from the molar mass of the structure shown. Values joined by “and” are separate entries in the source; they are usually repeats but may differ in a detail not shown here. Identical values can stand only once. Counter-ions that a name gives are not always drawn. Like-named read-outs stand apart in the source and are kept apart here.

Key:
[1] = biological target: single-chain tethered dimer of HIV protease (Human immunodeficiency virus 1, UniProt P04585); assay: biochemical; format: biochemical; set-up: fused on or other part: A second copy of the same protease unit is joined to the first by a short peptide tether, giving one polypeptide
HIV-1 (RF) in MT-2 cells = assay: microbe, parasite or virus in culture; format: cell-based; settings: read-out: IC90
Outline: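 HIV-1 laboratory strains (RF, MN, IIIB) grown in H9 cells in RPMI 1640 with 5% FCS; infections in MT-2 cells. Viral RNA quantified by hybridization with biotinylated gag/pol capture probes on streptavidin plates and alkaline phosphatase-conjugated reporter probes; BH10 gag-pol in vitro transcripts serve as RNA standards.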

[2] = read-out: HPLC K1, Table 2d, class symbols
[3] = Human immunodeficiency virus 1, MT2, 48 h, Table 2d, class symbols
[4] = Human immunodeficiency virus 1, MT2, Table 2q
[5] = read-out: HPLC K1, Table 2d, HIV protease inhibition, HPLC method
[6] = Human immunodeficiency virus 1, MT2, 48 h, Table 2d, HIV RNA assay
[7] = Human immunodeficiency virus 1, MT2, HIV RNA assay, HIV-1 infected MT-2 cells, class symbols

SMILES	Ki [1, 2] [nM]	IC90 (HIV-1 (RF) in MT-2 cells; [3]) [µg/mL]	melting point	other results
CN(C=O)c1cccc(CN2C(=O)N(Cc3cccc(N(C)C=O)c3)C(Cc3ccccc3)C(O)C(O)C2Cc2ccccc2)c1 (centres unmarked) [15F]	10 to 1000	< 10	82 °C	–
CONC(=O)c1ccc(CN2C(=O)N(Cc3ccc(C(=O)NOC)cc3)C(Cc3ccccc3)C(O)C(O)C2Cc2ccccc2)cc1 (centres unmarked) [10S]	< 10	< 10	186 to 189 °C	–
OC1C(O)C(Cc2ccccc2)N(Cc2ccccc2)C(=S)N(Cc2ccccc2)C1Cc1ccccc1 (centres unmarked) [Example 27A]	–	–	92 to 94 °C	Ki ([1]; read-out: HPLC Ki, Table 2q): < 10 nM; IC90 (HIV-1 (RF) in MT-2 cells; [4]): < 10 µg/mL
CSc1cccc(CN2C(=O)N(Cc3cccc(SC)c3)C(Cc3ccccc3)C(O)C(O)C2Cc2ccccc2)c1 (centres unmarked) [Example 12R]	< 10	< 10	169 °C and 169.3 °C	–
O=C1N(Cc2cccc(-c3ncc[nH]3)c2)C(Cc2ccccc2)C(O)C(O)C(Cc2ccccc2)N1Cc1cccc(-c2ncc[nH]2)c1 (centres unmarked) [Example 15BR]	–	–	178 to 180 °C	Ki [1, 5]: < 10 nM; IC90 (HIV-1 (RF) in MT-2 cells; [6]): < 10 µg/mL
NC(=NO)c1cccc(CN2C(=O)N(Cc3ccc(CO)cc3)C(Cc3ccccc3)C(O)C(O)C2Cc2ccccc2)c1 (centres unmarked) [15AH]	–	–	198 to 199 °C	Ki [1, 5]: < 10 nM; IC90 (HIV-1 (RF) in MT-2 cells; [6]): < 10 µg/mL
O=C(NCc1ccccc1)Oc1cccc(CN2C(=O)N(Cc3cccc(OC(=O)NCc4ccccc4)c3)C(Cc3ccccc3)C(O)C(O)C2Cc2ccccc2)c1 (centres unmarked) [Example 9L]	10 to 1000	< 10	150 °C (dec.)	–
O=C1N(Cc2cccc(-c3cc[nH]n3)c2)C(Cc2ccccc2)C(O)C(O)C(Cc2ccccc2)N1Cc1cccc(-c2cc[nH]n2)c1 (centres unmarked) (as salt: HCl) [Example 15YM]	–	–	195 to 197 °C	–
O=C1Nc2ccc(CN3C(=O)N(Cc4ccc5c(c4)C(=O)C(=O)N5)C(Cc4ccccc4)C(O)C(O)C3Cc3ccccc3)cc2C1=O (centres unmarked) [15DA]	–	–	196 to 200 °C	Ki [1, 5]: < 10 nM; IC90 (HIV-1 (RF) in MT-2 cells; [6]): < 10 µg/mL
CNc1cccc(CN2C(=O)N(Cc3ccc4ccccc4c3)C(Cc3ccccc3)C(O)C(O)C2Cc2ccccc2)c1 (centres unmarked) [15WZ]	< 10	< 10	98 to 100 °C	–
O=C1N(Cc2cccc(OCc3ccccc3)c2)C(Cc2ccccc2)C(O)C(O)C(Cc2ccccc2)N1Cc1cccc([N+](=O)[O-])c1 (centres unmarked) (hydrate or solvate) [11P]	–	–	173 to 176 °C	–
O=C1N(Cc2cccc(NS(=O)(=O)C(F)(F)F)c2)C(Cc2ccccc2)C(O)C(O)C(Cc2ccccc2)N1Cc1cccc(NS(=O)(=O)C(F)(F)F)c1 (centres unmarked) [15B]	< 10	10 to 100 (≈ 12.5 to 125 µM)	141.8 °C	–
O=C1N(Cc2cccc(O)c2)C(Cc2ccccc2)C(O)C(O)C(Cc2ccccc2)N1Cc1ccc2ccccc2c1 (centres unmarked) [10K]	< 10	< 10	137 to 138 °C	–
Nc1cccc(CN2C(=O)N(Cc3cccc(-c4cc[nH]n4)c3)C(Cc3ccccc3)C(O)C(O)C2Cc2ccccc2)c1 (centres unmarked) [Example 15CE]	–	–	136 to 138 °C	Ki [1, 5]: < 10 nM; IC90 (HIV-1 (RF) in MT-2 cells; [6]): < 10 µg/mL
CONC(=O)c1cccc(CN2C(=O)N(Cc3cccc(C(=O)NOC)c3)C(Cc3ccccc3)C(O)C(O)C2Cc2ccccc2)c1 (centres unmarked) [10R]	< 10	< 10	150 to 158 °C	–
O=C(O)c1cccc(CN2C(=O)N(Cc3ccccc3)C(Cc3ccccc3)C(O)C(O)C2Cc2ccccc2)c1 (centres unmarked) [15WP]	< 10	< 10	122 to 124 °C	–
Nc1cccc(CN2C(=O)N(CC3CC3)C(Cc3ccccc3)C(O)C(O)C2Cc2ccccc2)c1 (centres unmarked) (as salt: HCl) [15G]	–	–	108.9 °C	–
CON=Cc1cccc(CN2C(=O)N(Cc3cccc(C=NOC)c3)C(Cc3ccccc3)C(O)C(O)C2Cc2ccccc2)c1 (centres unmarked) [10D]	10 to 1000	> 100	183 to 185 °C	–
O=C(O)c1cccc(CN2C(=O)N(CC3CC3)C(Cc3ccccc3)C(O)C(O)C2Cc2ccccc2)c1 (centres unmarked) [15WQ]	< 10	< 10	135 to 137 °C	–
O=C1N(CCCCCO)C(Cc2ccccc2)C(O)C(O)C(Cc2ccccc2)N1Cc1ccc2ccccc2c1 (centres unmarked) [Example 15VH]	< 10	< 10	84.6 °C	–
O=C1N(Cc2ccc(CO)cc2)C(Cc2ccccc2)C(O)C(O)C(Cc2ccccc2)N1Cc1cccc(O)c1 (centres unmarked) [10o]	< 10	< 10	141 to 144 °C	–
O=C1N(Cc2cccc(-c3nnn[nH]3)c2)C(Cc2ccccc2)C(O)C(O)C(Cc2ccccc2)N1Cc1cccc(-c2nnn[nH]2)c1 (centres unmarked) [9T]	< 10	> 100	159.4 °C	–
CC(=O)c1cccc(CN2C(=O)N(Cc3cccc(Br)c3)C(Cc3ccccc3)C(O)C(O)C2Cc2ccccc2)c1 (centres unmarked) [Example 9o]	10 to 1000	< 10	190 to 191 °C	–

SMILES	Ki [1, 2] [nM]	IC90 (HIV-1 (RF) in MT-2 cells; [3]) [µg/mL]	melting point	other results
NNC(=O)c1cccc(CN2C(=O)N(Cc3cccc(C(=O)NN)c3)C(Cc3ccccc3)C(O)C(O)C2Cc2ccccc2)c1 (centres unmarked) [Example 10M]	< 10	< 10	205 °C	–
O=C1N(Cc2ccc(O)c(O)c2)C(Cc2ccccc2)C(O)C(O)C(Cc2ccccc2)N1CC1CC1 (centres unmarked) [15AG]	–	–	141 °C	Ki [1, 5]: < 10 nM; IC90 (HIV-1 (RF) in MT-2 cells; [6]): < 10 µg/mL
OC1C(O)C(Cc2ccccc2)N(CC2CC2)C(=S)N(CC2CC2)C1Cc1ccccc1 (centres unmarked) [Example 27B]	–	–	84 to 86 °C	Ki ([1]; read-out: HPLC Ki, Table 2q): < 10 nM; IC90 (HIV-1 (RF) in MT-2 cells; [4]): < 10 µg/mL
O=C1N(Cc2cccc(-c3cc[nH]n3)c2)C(Cc2ccccc2)C(O)C(O)C(Cc2ccccc2)N1Cc1ccc(O)c(O)c1 (centres unmarked) [Example 15CC]	–	–	177 to 180 °C	Ki [1, 5]: < 10 nM; IC90 (HIV-1 (RF) in MT-2 cells; [6]): < 10 µg/mL
CCOC(=O)c1ccc(CN2C(=O)N(Cc3ccc(C(=O)OCC)cc3)C(Cc3ccccc3)C(O)C(O)C2Cc2ccccc2)cc1 (centres unmarked) [Example 11F]	10 to 1000	> 100	174 to 178 °C	–
NC(=NO)c1cccc(CN2C(=O)N(Cc3ccc4ccccc4c3)C(Cc3ccccc3)C(O)C(O)C2Cc2ccccc2)c1 (centres unmarked) [15AN]	–	–	192 to 193 °C	Ki [1, 5]: < 10 nM; IC90 (HIV-1 (RF) in MT-2 cells; [6]): < 10 µg/mL
O=C1N(Cc2cccc(CCl)c2)C(Cc2ccccc2)C(O)C(O)C(Cc2ccccc2)N1Cc1cccc(CCl)c1 (centres unmarked) [Example 9S]	10 to 1000	< 10	156 to 157 °C	–
NC(=O)c1cccc(CN2C(=O)NC(Cc3ccccc3)C(O)C(O)C2Cc2ccccc2)c1 (centres unmarked) [15WW]	< 10	< 10	114 to 116 °C	–
NC(=NO)c1cccc(CN2C(=O)NC(Cc3ccccc3)C(O)C(O)C2Cc2ccccc2)c1 (centres unmarked) [15AT]	–	–	172 to 179 °C	Ki [1, 5]: < 10 nM; IC90 (HIV-1 (RF) in MT-2 cells; [6]): < 10 µg/mL
O=C1N(Cc2ccccn2)C(Cc2ccccc2)C(O)C(O)C(Cc2ccccc2)N1Cc1ccccn1 (centres unmarked) [Example 3M]	–	–	151 to 153 °C	IC90 (HIV-1 (RF) in MT-2 cells; [7]): 10 to 100 µg/mL (≈ 19.7 to 197 µM)
CC(C)CCCC(C)CCN1C(=O)N(CCC(C)CCCC(C)C)C(Cc2ccccc2)C(O)C(O)C1Cc1ccccc1 (centres unmarked) [Example 1P]	–	–	80 to 82 °C	–
CNC(=O)Nc1cccc(CN2C(=O)N(Cc3cccc(NC(=O)NC)c3)C(Cc3ccccc3)C(O)C(O)C2Cc2ccccc2)c1 (centres unmarked) [15L]	< 10	–	173.7 °C	–
CCCCCC1C(O)C(O)C(CCCCC)N(Cc2ccccc2)C(=O)N1Cc1ccccc1 (centres unmarked) [Example 16AH]	–	–	94 to 97 °C	Ki ([1]; read-out: K4 HPLC, Table 2e): 10 to 1000 nM
CNc1cccc(CN2C(=O)N(Cc3ccc(CO)cc3)C(Cc3ccccc3)C(O)C(O)C2Cc2ccccc2)c1 (centres unmarked) (as salt: HCl) [15M]	–	–	107.6 °C	–
NCC(=O)Nc1cccc(CN2C(=O)N(Cc3cccc(NC(=O)CN)c3)C(Cc3ccccc3)C(O)C(O)C2Cc2ccccc2)c1 (centres unmarked) (as salt: HCl) [15R]	–	–	233.7 °C	–
O=C1N(Cc2cccc(-c3cc[nH]n3)c2)C(Cc2ccccc2)C(O)C(O)C(Cc2ccccc2)N1Cc1cccc(-c2cc[nH]n2)c1 (centres unmarked) [Example 15YL]	–	–	208 to 210 °C	IC90 (HIV-1 (RF) in MT-2 cells; [6]): < 10 µg/mL
Cc1ccc(CN2C(=O)N(Cc3ccc(CO)cc3)C(Cc3ccccc3)C(O)C(O)C2Cc2ccccc2)cc1 (centres unmarked) [15EI]	–	–	174 to 175 °C	Ki [1, 5]: < 10 nM
O=C1N(Cc2cccc(OCCO)c2)C(Cc2ccccc2)C(O)C(O)C(Cc2ccccc2)N1Cc1cccc(OCCO)c1 (centres unmarked) (hydrate or solvate) [10Y]	–	–	245 to 247 °C	–
CCCCCCC1C(O)C(O)C(CCCCCC)N(Cc2ccccc2)C(=O)N1Cc1ccccc1 (centres unmarked) [Example 16AI]	–	–	79 to 82 °C	Ki ([1]; read-out: K4 HPLC, Table 2e): 10 to 1000 nM
O=C1N(Cc2cccc3ccccc23)C(Cc2ccccc2)C(O)C(O)C(Cc2ccccc2)N1Cc1cccc2ccccc12 (centres unmarked) [Example 3T]	–	–	231 to 233 °C	IC90 (HIV-1 (RF) in MT-2 cells; [7]): > 100 µg/mL
CC(=NO)c1cccc(CN2C(=O)N(Cc3cccc(C(C)=NO)c3)C(Cc3ccccc3)C(O)C(O)C2Cc2ccccc2)c1 (centres unmarked) [Example 9Q]	–	< 10	200 to 202 °C	–
N#CN=C1N(Cc2cccc([N+](=O)[O-])c2)[C@H](Cc2ccccc2)[C@H](O)[C@@H](O)[C@@H](Cc2ccccc2)N1Cc1cccc([N+](=O)[O-])c1	–	–	114 °C	–
CC1C(O)C(O)C(C)N(Cc2ccc3ccccc3c2)C(=O)N1Cc1ccc2ccccc2c1 (centres unmarked) [Example 16H]	–	–	236 to 238 °C	Ki ([1]; read-out: K4 HPLC, Table 2e): > 1000 nM
